Experimental data as given in patent US8557763B2, “Synthetic peptides that enhance tight junction permeability” (Alba Therapeutics Corporation, priority 2007, dated 2013).
Where no end group is shown, it is not given here. [ ]: non-standard residue; d: D form. AllylGly = C=CC[C@H](N)C(=O)O

Experiments:
CaCo2 monolayers [1] = assay: Lucifer Yellow (LY) permeability assay through CaCo2 monolayers; format: cell-based; design: key to Enhanced LY permeability: + indicates an enhancement of the permeability of the tight junctions were observed; − indicates no enhancement of permeability was observed; details: CaCo2 monolayers, Lucifer Yellow flux
From the text: (§1) Agonists of tight junctions can be identified by their ability to enhance the flux of compounds (e.g. ions, Lucifer Yellow) through a cell monolayer that comprises tight junctions; or by their ability to reduce TEER across a cell monolayer that comprises tight junctions. Treatment of CaCo2 monolayers with peptide FCIGRL (SEQ ID NO: 1) led to a 51-fold enhancement of Lucifer Yellow permeability through CaCo2 monolayers compared to vehicle alone.
(§2) Tight junction agonists can be identified and tested using the following method:
(§3) Determination of TEER and Lucifer Yellow Flux
(§4) Prepare Modified Hank's Balanced Salt Solution (MHBSS) by obtaining 1 L bottle of HBSS removing 10 ml of HBSS and replacing it with 10 ml HEPES buffer pH 7.0. Adjust pH to 7.4±0.1 using concentrated NaOH (10N).
(§5) Remove CaCo-2 cells from incubator, grown on 12-well, 3.0 μM, polycarbonate Transwell® filters (Corning) and record passage#, date cells seeded and age in days.
(§6) Aspirate cell culture medium from both the apical (AP) and basolateral (BL) compartments, replacing with 0.5 ml and 1.5 ml of MHBSS, respectively. Incubate cells at 37° C. for 30 minutes.
(§7) Aspirate solution from the apical compartment of each filter (n=3 per condition) and replace with 0.5 ml of control and test solutions containing Lucifer Yellow and test compound if appropriate.
(§8) Place all plates into incubator set at 37° C. (±0.2), 50 RPM (±5) for a total of 180 minutes.
At t=60, 120 and 180 minutes remove […] from each basolateral compartment and place it in a 96-well plate for Lucifer Yellow analysis, replace with 100 μl of MHBSS.
Make a Lucifer Yellow standard curve with the following dilutions (7500 μM, 3750 μM, 750 μM, 375 μM, 37.5 μM, 7.5 μM, 3.75 μM, 0.75 μM) and pipette 100 μL of each into a 96-well plate except for the first three standards mentioned above which require a 1:10 dilutions prior to transferring to the 96-well plate.
Harvest the remaining start solutions and what is left in each apical compartment into 1.5 ml vials. Freeze at −20° C. for future analysis.
Analyze each 96-well plate in a Tecan Spectra Fluor Plus using Magellan at 485 and 535 nm.
(§9) Cells: CaCo-2 cells passage 40-60 grown on Transwell® plates for 21-28 days
(§10) Culture Medium: DMEM supplemented with 10% fetal bovine serum, 1% NEAA, 1% Penn/Strep
(§11) Buffers: Hank's Balanced Salt Solution (HBSS) without calcium and magnesium
(§12) Flasks: 100×20 mm Tissue culture dish Falcon.
(§13) Plates: 12 well polycarbonate Transwell® filters; 0.3 uM pore size

CaCo2 monolayers [2] = assay: Trans Epithelial Electric Resistance (TEER) across CaCo2 monolayers; format: cell-based; design: key to Reduced TEER: + indicates an enhancement of the permeability of the tight junctions were observed; − indicates no enhancement of permeability was observed; details: CaCo2 monolayers
From the text: as §1
Treatment of CaCo2 monolayers with peptide FCIGRL led to a 16-fold decrease in TEER across CaCo2 monolayers compared to vehicle alone.
as §2, §3, §4, §5, §6
Using the MilliCell®-ERS instrument (Millipore), measure and record the transepithelial electrical resistance (TEER) across each filter and record.
as §7, §8
At t=30, 60, 120 and 180 minutes, measure and record the transepithelial electrical resistance (TEER) across each filter using the MilliCell-ERS instrument.
as §9, §10, §11, §12, §13

Row | Substance | Enhanced LY permeability (CaCo2 monolayers [1]) | Reduced TEER (CaCo2 monolayers [2])
1 | 8 (S[AllylGly]IGRL-NH2; N-terminus assumed; SMILES C=CC[C@H](NC(=O)[C@@H](N)CO)C(=O)N[C@H](C(=O)NCC(=O)N[C@@H](CCCNC(=N)N)C(=O)N[C@@H](CC(C)C)C(N)=O)[C@@H](C)CC) [compound 8] | − | −
2 | 10 (E[AllylGly]IGRL-NH2; N-terminus assumed; SMILES C=CC[C@H](NC(=O)[C@@H](N)CCC(=O)O)C(=O)N[C@H](C(=O)NCC(=O)N[C@@H](CCCNC(=N)N)C(=O)N[C@@H](CC(C)C)C(N)=O)[C@@H](C)CC) [compound 10] | − | −
3 | 11 (V[AllylGly]IGRL-NH2; N-terminus assumed; SMILES C=CC[C@H](NC(=O)[C@@H](N)C(C)C)C(=O)N[C@H](C(=O)NCC(=O)N[C@@H](CCCNC(=N)N)C(=O)N[C@@H](CC(C)C)C(N)=O)[C@@H](C)CC) [compound 11] | − | −
4 | 12 (Y[AllylGly]IGRL-NH2; N-terminus assumed; SMILES C=CC[C@H](NC(=O)[C@@H](N)Cc1ccc(O)cc1)C(=O)N[C@H](C(=O)NCC(=O)N[C@@H](CCCNC(=N)N)C(=O)N[C@@H](CC(C)C)C(N)=O)[C@@H](C)CC) [compound 12] | − | −
5 | 13 (G[AllylGly]IGRL; not fully specified; printed as Gly−AllylGly−Ile−Gly−Arg−Leu−NR2) [compound 13] | − | −
6 | 15 (W[AllylGly]IGRL-NH2; N-terminus assumed; SMILES C=CC[C@H](NC(=O)[C@@H](N)Cc1c[nH]c2ccccc12)C(=O)N[C@H](C(=O)NCC(=O)N[C@@H](CCCNC(=N)N)C(=O)N[C@@H](CC(C)C)C(N)=O)[C@@H](C)CC) [compound 15] | + | −
7 | 16 (K[AllylGly]IGRL-NH2; N-terminus assumed; SMILES C=CC[C@H](NC(=O)[C@@H](N)CCCCN)C(=O)N[C@H](C(=O)NCC(=O)N[C@@H](CCCNC(=N)N)C(=O)N[C@@H](CC(C)C)C(N)=O)[C@@H](C)CC) [compound 16] | − | −
8 | 17 (A[AllylGly]IGRL-NH2; N-terminus assumed; SMILES C=CC[C@H](NC(=O)[C@H](C)N)C(=O)N[C@H](C(=O)NCC(=O)N[C@@H](CCCNC(=N)N)C(=O)N[C@@H](CC(C)C)C(N)=O)[C@@H](C)CC) [compound 17] | − | −
9 | 18 (H[AllylGly]IGRL-NH2; N-terminus assumed; SMILES C=CC[C@H](NC(=O)[C@@H](N)Cc1c[nH]cn1)C(=O)N[C@H](C(=O)NCC(=O)N[C@@H](CCCNC(=N)N)C(=O)N[C@@H](CC(C)C)C(N)=O)[C@@H](C)CC) [compound 18] | − | −
10 | 19 (P[AllylGly]IGRL-NH2; N-terminus assumed; SMILES C=CC[C@H](NC(=O)[C@@H]1CCCN1)C(=O)N[C@H](C(=O)NCC(=O)N[C@@H](CCCNC(=N)N)C(=O)N[C@@H](CC(C)C)C(N)=O)[C@@H](C)CC) [compound 19] | − | −
11 | 20 (R[AllylGly]IGRL-NH2; N-terminus assumed; SMILES C=CC[C@H](NC(=O)[C@@H](N)CCCNC(=N)N)C(=O)N[C@H](C(=O)NCC(=O)N[C@@H](CCCNC(=N)N)C(=O)N[C@@H](CC(C)C)C(N)=O)[C@@H](C)CC) [compound 20] | + | −
12 | 21 (I[AllylGly]IGRL-NH2; N-terminus assumed; SMILES C=CC[C@H](NC(=O)[C@@H](N)[C@@H](C)CC)C(=O)N[C@H](C(=O)NCC(=O)N[C@@H](CCCNC(=N)N)C(=O)N[C@@H](CC(C)C)C(N)=O)[C@@H](C)CC) [compound 21] | − | −
13 | 22 (F[AllylGly]PGRL-NH2; N-terminus assumed; SMILES C=CC[C@H](NC(=O)[C@@H](N)Cc1ccccc1)C(=O)N1CCC[C@H]1C(=O)NCC(=O)N[C@@H](CCCNC(=N)N)C(=O)N[C@@H](CC(C)C)C(N)=O) [compound 22] | − | −
14 | 23 (F[AllylGly]FGRL-NH2; N-terminus assumed; SMILES C=CC[C@H](NC(=O)[C@@H](N)Cc1ccccc1)C(=O)N[C@@H](Cc1ccccc1)C(=O)NCC(=O)N[C@@H](CCCNC(=N)N)C(=O)N[C@@H](CC(C)C)C(N)=O) [compound 23] | + | +
15 | 24 (F[AllylGly]TGRL-NH2; N-terminus assumed; SMILES C=CC[C@H](NC(=O)[C@@H](N)Cc1ccccc1)C(=O)N[C@H](C(=O)NCC(=O)N[C@@H](CCCNC(=N)N)C(=O)N[C@@H](CC(C)C)C(N)=O)[C@@H](C)O) [compound 24] | − | −
16 | 25 (F[AllylGly]LGRL-NH2; N-terminus assumed; SMILES C=CC[C@H](NC(=O)[C@@H](N)Cc1ccccc1)C(=O)N[C@@H](CC(C)C)C(=O)NCC(=O)N[C@@H](CCCNC(=N)N)C(=O)N[C@@H](CC(C)C)C(N)=O) [compound 25] | + | +
17 | 26 (F[AllylGly]SGRL-NH2; N-terminus assumed; SMILES C=CC[C@H](NC(=O)[C@@H](N)Cc1ccccc1)C(=O)N[C@@H](CO)C(=O)NCC(=O)N[C@@H](CCCNC(=N)N)C(=O)N[C@@H](CC(C)C)C(N)=O) [compound 26] | + | +
18 | 27 (F[AllylGly]FGRL-NH2; N-terminus assumed; SMILES C=CC[C@H](NC(=O)[C@@H](N)Cc1ccccc1)C(=O)N[C@@H](Cc1ccccc1)C(=O)NCC(=O)N[C@@H](CCCNC(=N)N)C(=O)N[C@@H](CC(C)C)C(N)=O) [compound 27] | + | +
19 | 28 (F[AllylGly]VGRL-NH2; N-terminus assumed; SMILES C=CC[C@H](NC(=O)[C@@H](N)Cc1ccccc1)C(=O)N[C@H](C(=O)NCC(=O)N[C@@H](CCCNC(=N)N)C(=O)N[C@@H](CC(C)C)C(N)=O)C(C)C) [compound 28] | − | −
20 | 29 (F[AllylGly]GGRL-NH2; N-terminus assumed; SMILES C=CC[C@H](NC(=O)[C@@H](N)Cc1ccccc1)C(=O)NCC(=O)NCC(=O)N[C@@H](CCCNC(=N)N)C(=O)N[C@@H](CC(C)C)C(N)=O) [compound 29] | + | +
21 | 30 (F[AllylGly]AGRL-NH2; N-terminus assumed; SMILES C=CC[C@H](NC(=O)[C@@H](N)Cc1ccccc1)C(=O)N[C@@H](C)C(=O)NCC(=O)N[C@@H](CCCNC(=N)N)C(=O)N[C@@H](CC(C)C)C(N)=O) [compound 30] | + | +
22 | 31 (F[AllylGly]HGRL-NH2; N-terminus assumed; SMILES C=CC[C@H](NC(=O)[C@@H](N)Cc1ccccc1)C(=O)N[C@@H](Cc1c[nH]cn1)C(=O)NCC(=O)N[C@@H](CCCNC(=N)N)C(=O)N[C@@H](CC(C)C)C(N)=O) [compound 31] | + | +
23 | 32 (F[AllylGly]DGRL-NH2; N-terminus assumed; SMILES C=CC[C@H](NC(=O)[C@@H](N)Cc1ccccc1)C(=O)N[C@@H](CC(=O)O)C(=O)NCC(=O)N[C@@H](CCCNC(=N)N)C(=O)N[C@@H](CC(C)C)C(N)=O) [compound 32] | + | +
24 | 33 (F[AllylGly]EGRL-NH2; N-terminus assumed; SMILES C=CC[C@H](NC(=O)[C@@H](N)Cc1ccccc1)C(=O)N[C@@H](CCC(=O)O)C(=O)NCC(=O)N[C@@H](CCCNC(=N)N)C(=O)N[C@@H](CC(C)C)C(N)=O) [compound 33] | + | +
